Values after ≈ are worked out from the molar mass of the structure shown.
Columns and labels:
[1] = target: Plasmepsin II (Plasmodium falciparum) (UniProt P46925); test: (§1) Inhibition of Plasmodium falciparum plasmepsin 2; conditions: concentration not given here
Plasmodium falciparum [2] = test: Anti-parasitic activity against chloroquine-resistant Plasmodium falciparum W2; type: functional, organism-based
Plasmodium falciparum [3] = test: Anti-parasitic activity against chloroquine-susceptible Plasmodium falciparum D6; type: functional, organism-based
[4] = Inhibition of new permeation pathway in erythrocytes (unknown origin) at 20 uM by sorbitol-induced hemolysis assay; type: functional, cell-based; conditions: Erythrocyte
Plasmodium falciparum [5] = test: Anti-parasitic activity against Plasmodium falciparum; type: functional
Plasmodium falciparum [6] = test: Anti-parasitic activity against Plasmodium falciparum assessed as inhibition of parasite development from ring to schizont stage; type: functional
Leishmania donovani [7] = test: Anti-leishmanial activity against Leishmania donovani infected in hamsters assessed as reduction in parasite load in liver at 5 to 150 mg/kg/day, po for 6 consecutive days; type: functional
[8] = Inhibition of Plasmodium falciparum succinate-ubiquinone oxidoreductase
[9] = Inhibition of Plasmodium falciparum Cytochrome b-c1 complex
Leishmania donovani [10] = test: Anti-leishmanial activity against Leishmania donovani infected in hamsters assessed as reduction in parasite load in spleen at 20 mg/kg/day, ip for 6 consecutive days; type: functional
Leishmania donovani [11] = test: Anti-leishmanial activity against Leishmania donovani infected in hamsters assessed as reduction in parasite load in liver at 20 mg/kg/day, ip for 6 consecutive days; type: functional
Leishmania donovani [12] = test: Anti-leishmanial activity against Leishmania donovani infected in hamsters assessed as reduction in parasite load in spleen at 5 to 150 mg/kg/day, po for 6 consecutive days; type: functional
Leishmania major = test: Anti-leishmanial activity against Leishmania major; type: functional, organism-based
[13] = Inhibition of beta-hematin formation; type: physicochemical
[14] = Inhibition of Trypanosoma cruzi trans-sialidase
Plasmodium falciparum [15] = test: Inhibition of Plasmodium falciparum GST; conditions: concentration not given here
Leishmania amazonensis [16] = test: Anti-leishmanial activity against Leishmania amazonensis promastigotes; type: functional; conditions: read-out: ED50
Leishmania amazonensis [17] = test: Anti-leishmanial activity against Leishmania amazonensis intracellular amastigotes; type: functional; conditions: read-out: ED50
Plasmepsin II = Plasmepsin II (Plasmodium falciparum, UniProt P46925); test: as §1
[18] = Inhibition of Trypanosoma brucei trypanopain
[19] = Inhibition of Saccharomyces cerevisiae beta-1,3-glucan synthase
[20] = Inhibition of Trichophyton rubrum FAS
[21] = Inhibition of Saccharomyces cerevisiae chitin synthase-1
Trichophyton rubrum [22] = test: Antimicrobial activity against Trichophyton rubrum with deltaTruMDR2 mutation; type: functional
Trichophyton rubrum [23] = test: Antimicrobial activity against wild type Trichophyton rubrum MYA3108; type: functional
Enterovirus = test: Antiviral activity against Rhinovirus infected in human HeLa cells; type: functional, organism-based
[24] = Cytotoxicity against human HeLa cells; type: cell-based
Trichophyton rubrum [25] = test: Antimicrobial activity against Trichophyton rubrum; type: functional
Trichophyton rubrum [26] = test: Antimicrobial activity against Trichophyton rubrum clinical isolates; type: functional
Plasmodium falciparum [27] = test: Anti-parasitic activity against chloroquine-susceptible Plasmodium falciparum 3D7 assessed as reduction in parasite maturation at 50 ug/ml; type: functional
[28] = Inhibition of Plasmodium falciparum falcipain
[29] = Selectivity index, ratio of cytotoxicity for human HeLa cells to IC50 for anti-parasitic activity against chloroquine-resistant Plasmodium falciparum W2; type: toxicity, cell-based; conditions: read-out: Selectivity Index
Plasmodium falciparum [30] = test: Anti-parasitic activity against chloroquine-susceptible Plasmodium falciparum 3D7 assessed as reduction in parasite maturation; type: functional

Sequence of Plasmepsin II (P46925 whole entry): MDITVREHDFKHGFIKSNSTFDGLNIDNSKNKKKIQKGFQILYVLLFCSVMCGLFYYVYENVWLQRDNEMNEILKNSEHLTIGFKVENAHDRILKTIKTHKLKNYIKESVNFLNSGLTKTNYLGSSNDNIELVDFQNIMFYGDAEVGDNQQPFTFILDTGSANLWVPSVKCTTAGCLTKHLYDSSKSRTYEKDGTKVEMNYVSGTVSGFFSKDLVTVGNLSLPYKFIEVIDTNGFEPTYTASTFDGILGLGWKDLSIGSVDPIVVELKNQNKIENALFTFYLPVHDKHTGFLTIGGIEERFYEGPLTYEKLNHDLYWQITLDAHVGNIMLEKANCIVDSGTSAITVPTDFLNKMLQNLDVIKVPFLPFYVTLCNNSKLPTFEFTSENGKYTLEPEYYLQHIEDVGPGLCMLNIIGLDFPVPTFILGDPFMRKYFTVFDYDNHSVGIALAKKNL
Sequence of Plasmepsin II (Plasmodium falciparum) (P46925 125-453 limits assumed): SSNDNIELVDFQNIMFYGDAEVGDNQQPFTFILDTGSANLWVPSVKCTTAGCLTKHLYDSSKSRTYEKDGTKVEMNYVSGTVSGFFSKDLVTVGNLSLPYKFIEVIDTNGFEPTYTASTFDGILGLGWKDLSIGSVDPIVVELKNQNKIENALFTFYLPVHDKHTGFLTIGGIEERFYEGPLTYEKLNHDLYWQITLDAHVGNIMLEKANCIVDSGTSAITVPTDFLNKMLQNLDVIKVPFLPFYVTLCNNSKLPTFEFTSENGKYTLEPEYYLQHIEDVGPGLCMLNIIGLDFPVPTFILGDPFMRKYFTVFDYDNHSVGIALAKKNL

SMILES: COc1cc(/C=C/C(=O)c2ccc(NC(=O)Nc3cccc(C(=O)/C=C/c4cc(OC)c(OC)c(OC)c4)c3)cc2)cc(OC)c1OC
- inhibition [1]: 87%

SMILES: O=C(/C=C\c1ccnc2ccccc12)c1cc(Cl)ccc1Cl
- IC50 (Plasmodium falciparum [2]): 200 nM
- IC50 (Plasmodium falciparum [3]): 200 nM

SMILES: COc1cc2c(cc1/C=C/C(=O)c1ccccc1)[C@H]1CC[C@]3(C)[C@@H](Oc4cc(OC)c(OC)c(OC)c4)CC[C@H]3[C@@H]1CC2
- inhibition [4]: > 70%
- GI50 (Plasmodium falciparum [5]): < 5000 nM
- MIC (Plasmodium falciparum [6]): 2.07 µM (≈ 1.21 µg/mL)

SMILES: C=CC(C)(C)c1cc(/C=C/C(=O)c2ccc(O)cc2)c(OC)cc1O [LICOAGROCHACONE A]
- inhibition (INH) (Leishmania donovani [7]): >65%
- IC50 [8]: ≥ 100000 nM
- IC50 [9]: 10800 nM
- inhibition in vivo at 20 mg/kg/day (Leishmania donovani [10]): > 96%
- inhibition in vivo at 20 mg/kg/day (Leishmania donovani [11]): > 96%
- inhibition (INH) (Leishmania donovani [12]): >65%

SMILES: O=C(/C=C/c1ccc(O)cc1)c1ccccc1 [4-HYDROXYCHALCONE]
- IC50 (Leishmania major): 4000 nM

SMILES: COc1ccc(/C=C/C(=O)c2ccc(NS(=O)(=O)c3cc(Cl)ccc3Cl)cc2)c(OC)c1OC
- IC50 [13]: 480 nM

SMILES: Cc1ccc(S(=O)(=O)Nc2ccc(C(=O)/C=C/c3ccc(O)c(O)c3)cc2)cc1
- IC50 [14]: 900 nM

SMILES: COc1ccc(/C=C/C(=O)c2ccc(-n3nnc4ccccc43)cc2)cc1
- inhibition (Plasmodium falciparum [15]): 84%

SMILES: COc1ccc(/C=C/C(=O)c2ccc(N3CCCC3)cc2)cc1
- inhibition (Plasmodium falciparum [15]): 84%

SMILES: COc1cc(O)c(C(=O)/C=C/c2ccccc2)c(O)c1
- EC50 (Leishmania amazonensis [16]): 0.5 µg/mL (≈ 1.85 µM)
- EC50 (Leishmania amazonensis [17]): 24 µg/mL (≈ 88.8 µM)

SMILES: COc1ccc(C(=O)/C=C/c2ccc(C(F)(F)F)cc2)c(OC)c1
- IC50 (Plasmepsin II): 6000 nM

SMILES: Cc1ccc(S(=O)(=O)Nc2cccc(C(=O)/C=C/c3ccc(O)c(O)c3)c2)cc1
- IC50 [14]: 2500 nM

SMILES: O=C(/C=C/c1cnc2ccccc2c1)c1cc(Cl)ccc1Cl
- IC50 (Plasmodium falciparum [2]): 200 nM
- IC50 (Plasmodium falciparum [3]): 200 nM

SMILES: O=C(/C=C/c1ccc(Cl)cc1)c1ccc(N2CCCCC2)cc1
- inhibition (Plasmodium falciparum [15]): 84%

SMILES: O=C(/C=C/c1cc2ccccc2nc1Cl)c1ccc(Cl)c(Cl)c1Cl
- IC50 [18]: 240 nM

SMILES: COc1ccc(C(=O)/C=C/c2ccc(F)cc2F)c(OC)c1
- IC50 (Plasmepsin II): 6000 nM

SMILES: O=C(/C=C/c1ccccc1)c1ccccc1 [CHALCONE]
- IC50 [19]: 0.14 µg/mL (≈ 0.672 µM)
- IC50 [20]: 68.23 µg/mL (≈ 328 µM)
- IC50 [21]: 0.02 µg/mL (≈ 0.096 µM)
- MIC (Trichophyton rubrum [22]): 1.9 µg/mL (≈ 9.12 µM)
- MIC (Trichophyton rubrum [23]): 7.5 µg/mL (≈ 36 µM)

SMILES: CCOc1cc(O)c(C(=O)/C=C/c2ccc(OC)cc2)c(OC)c1
- IC50 (Enterovirus): 0.03 µg/mL (≈ 0.0914 µM)
- CC50 [24]: 30 µg/mL (≈ 91.4 µM)

SMILES: COc1cc(O)c(C(=O)/C=C/c2ccccc2Cl)c(OC)c1
- MIC (Trichophyton rubrum [25]): 12.5 µg/mL (≈ 39.2 µM)
- MIC50 (Trichophyton rubrum [26]): 12.5 µg/mL (≈ 39.2 µM)
- MIC90 (Trichophyton rubrum [26]): 25 µg/mL (≈ 78.4 µM)

SMILES: Cc1cccc(C(=O)/C=C(\I)c2cc3ccccc3nc2Cl)c1O
- MIC (Plasmodium falciparum [27]): 50 µg/mL (≈ 111 µM)

SMILES: COc1cc2cc(/C=C/C(=O)c3ccc(Cl)cc3Cl)cnc2cc1OC
- IC50 [28]: 19000 nM

SMILES: COc1ccc(/C=C/C(=O)c2ccccc2O)c(OC)c1
- IC50 (Leishmania major): 4540 nM

SMILES: O=C(/C=C/c1cccnc1)c1ccc(NS(=O)(=O)c2cc(Cl)ccc2Cl)cc1
- IC50 [13]: 500 nM

SMILES: COc1ccc(/C=C/C(=O)c2ccccc2)cc1S(=O)(=O)N1CCOCC1
- selectivity ratio [29]: 9

SMILES: O=C(/C=C/c1cc2ccccc2nc1Cl)c1cc(Br)cc(Cl)c1O
- MIC (Plasmodium falciparum [30]): 10 µg/mL (≈ 23.6 µM)

SMILES: CCOc1ccc2nc(Cl)c(/C=C/C(=O)c3cc(Br)cc(Cl)c3O)cc2c1
- MIC (Plasmodium falciparum [30]): 10 µg/mL (≈ 21.4 µM)

From ChEMBL document CHEMBL3611995, “Chalcone scaffolds as anti-infective agents: structural and molecular target perspectives” (Eur J Med Chem, 2015)
